Earlier results on one substance are cited in US20260092085A1, “SYNTHETIC TRIPLEX PEPTIDE NUCLEIC ACID-BASED INHIBITORS FOR CANCER THERAPY” (University of Connecticut, priority 2022, published 2026).

For the data set, the system named is U2932 lymphoma cell line. Particulars: U2932, 10 uM; cited from earlier work.

cobomarsen: the “increase in apoptosis compared to control” value is 4 fold.
